For orientation: IC50 means the concentration at which inhibition is half-maximal.

SMILES strings stand for the structures. Starred links: 1 amine or outer side, 2 acyl side, 3 side chain; linkers in the order of their positions; H or OH if unused. Positions of bridges follow the written chain, without caps; N, C: chain ends. Non-standard residues stand in square brackets, D forms with d. Residues, ends and D or L forms follow the SMILES beside them. Trp(7-aza) = N[C@@H](Cc1c[nH]c2ncccc12)C(=O)O; Phe(3-Cl) = N[C@@H](Cc1cccc(Cl)c1)C(=O)O; mXylylene = c1cc(C[*:1])cc(C[*:2])c1; dPhg = N[C@@H](C(=O)O)c1ccccc1; Phg = N[C@H](C(=O)O)c1ccccc1; Tle = CC(C)(C)[C@H](N)C(=O)O; NMeS = CN[C@@H](CO)C(=O)O; Pra = C#CC[C@H](N)C(=O)O; Nva = CCC[C@H](N)C(=O)O Where only a bound is given, the exact number is not on record here.

The test deals with C5 (Homo sapiens, UniProt P01031). In words: Human hemolysis assay (RBC lysis assay using complete human sera). Details: with complete human sera (Complement Technology, Tyler Tex.) and polypeptides; tissue Complement Technology, Tyler Tex; host or cells: complete human serum. The note with it: inhibition of lysis of antibody-sensitized sheep erythrocytes, complete human sera. Type of test: cell-based.
Chain of C5 (P01031 19-1676): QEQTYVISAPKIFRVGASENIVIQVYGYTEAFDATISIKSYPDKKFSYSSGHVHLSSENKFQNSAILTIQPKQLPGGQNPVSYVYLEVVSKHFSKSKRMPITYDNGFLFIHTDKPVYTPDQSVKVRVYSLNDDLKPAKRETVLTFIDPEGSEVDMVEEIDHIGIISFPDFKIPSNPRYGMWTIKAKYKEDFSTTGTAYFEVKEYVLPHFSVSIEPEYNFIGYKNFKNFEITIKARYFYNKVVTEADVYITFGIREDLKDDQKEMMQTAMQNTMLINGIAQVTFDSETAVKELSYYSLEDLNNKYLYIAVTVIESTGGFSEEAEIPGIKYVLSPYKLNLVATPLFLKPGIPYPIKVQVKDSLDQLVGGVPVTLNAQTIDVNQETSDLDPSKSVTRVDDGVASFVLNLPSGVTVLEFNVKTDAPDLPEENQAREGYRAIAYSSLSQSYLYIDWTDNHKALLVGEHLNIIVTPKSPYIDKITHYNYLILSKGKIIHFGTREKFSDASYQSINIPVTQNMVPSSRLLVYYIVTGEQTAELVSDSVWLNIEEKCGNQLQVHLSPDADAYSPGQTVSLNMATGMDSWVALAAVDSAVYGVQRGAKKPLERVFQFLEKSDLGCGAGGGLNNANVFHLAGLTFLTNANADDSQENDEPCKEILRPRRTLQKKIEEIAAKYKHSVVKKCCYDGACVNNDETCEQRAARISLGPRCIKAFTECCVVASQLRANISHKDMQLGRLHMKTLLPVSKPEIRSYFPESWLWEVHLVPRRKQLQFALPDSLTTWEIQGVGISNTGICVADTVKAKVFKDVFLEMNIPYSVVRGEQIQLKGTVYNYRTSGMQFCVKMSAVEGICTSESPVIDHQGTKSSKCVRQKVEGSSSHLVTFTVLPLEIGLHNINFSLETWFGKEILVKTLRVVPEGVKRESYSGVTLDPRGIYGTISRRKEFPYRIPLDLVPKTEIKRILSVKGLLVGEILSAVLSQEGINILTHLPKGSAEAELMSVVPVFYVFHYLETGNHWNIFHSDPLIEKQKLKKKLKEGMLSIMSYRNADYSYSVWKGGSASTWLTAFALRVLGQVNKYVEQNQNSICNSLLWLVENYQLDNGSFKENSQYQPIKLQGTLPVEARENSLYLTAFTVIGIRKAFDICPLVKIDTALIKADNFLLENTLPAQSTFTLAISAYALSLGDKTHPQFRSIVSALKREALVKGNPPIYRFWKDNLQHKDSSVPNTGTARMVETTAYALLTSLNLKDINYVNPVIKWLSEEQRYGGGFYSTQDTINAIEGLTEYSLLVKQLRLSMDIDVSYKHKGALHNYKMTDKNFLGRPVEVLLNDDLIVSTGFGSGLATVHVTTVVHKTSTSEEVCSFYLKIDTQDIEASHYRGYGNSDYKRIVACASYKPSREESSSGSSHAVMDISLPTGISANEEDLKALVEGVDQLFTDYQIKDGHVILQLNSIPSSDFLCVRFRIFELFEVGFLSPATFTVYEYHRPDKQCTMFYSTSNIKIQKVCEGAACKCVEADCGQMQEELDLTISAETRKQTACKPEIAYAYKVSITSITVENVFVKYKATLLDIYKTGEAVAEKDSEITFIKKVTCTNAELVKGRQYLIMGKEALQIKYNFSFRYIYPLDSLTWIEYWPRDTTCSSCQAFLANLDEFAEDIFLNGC
Consider `CCC[C@H](NC(=O)[C@@H]1CSCc2cccc(c2)CSC[C@H](NC(=O)[C@H](CCC)NC(C)=O)C(=O)N[C@@H](c2ccccc2)C(=O)N[C@@H]([C@@H](C)O)C(=O)N[C@@H](Cc2c[nH]c3ncccc23)C(=O)N[C@@H](CCC(=O)O)C(=O)N[C@@H](Cc2cccc(Cl)c2)C(=O)N(C)[C@@H](CO)C(=O)N[C@@H](C)C(=O)N1)C(N)=O` [Compound R3134, [mXylyl(2,10)]Ac-Nvl-C-Phg-T-azaTrp-E-(3-Cl-Phe)-(N-Me)S-A-C-Nvl-NH2] (Ac-[Nva]C[Phg]T[Trp(7-aza)]E[Phe(3-Cl)][NMeS]AC[Nva]-NH2; linker 2-10 via mXylylene), for which the IC50 is more than 5000 nM.

`CCC[C@H](NC(=O)[C@@H]1CSCc2cccc(c2)CSC[C@H](NC(=O)[C@H](CCC)NC(C)=O)C(=O)N[C@@H](c2ccccc2)C(=O)N[C@@H]([C@@H](C)O)C(=O)N[C@@H](Cc2c[nH]c3ncccc23)C(=O)N[C@@H](CCC(=O)O)C(=O)N[C@@H](Cc2ccc(O)cc2)C(=O)N(C)[C@@H](CO)C(=O)N[C@H](C)C(=O)N1)C(N)=O` [Compound R3135, [mXylyl(2,10)]Ac-Nvl-C-Phg-T-azaTrp-E-Y-(N-Me)S-(D-Ala)-C-Nvl-NH2] (Ac-[Nva]C[Phg]T[Trp(7-aza)]EY[NMeS][dA]C[Nva]-NH2; linker 2-10 via mXylylene): the IC50 was more than 25000 nM. With `CC(=O)N[C@H]1CSCc2cccc(c2)CSC[C@@H](C(=O)N[C@@H](CC(=O)O)C(=O)N[C@H](C(=O)N[C@@H](Cc2ccc(O)cc2)C(=O)N[C@@H](Cc2c[nH]c3ccccc23)C(=O)N[C@@H](CCC(=O)O)C(=O)N[C@@H](Cc2ccccc2)C(N)=O)C(C)(C)C)NC(=O)[C@H](Cc2ccccc2)NC(=O)[C@H](CCCNC(=N)N)NC(=O)[C@H](CCC(=O)O)NC(=O)[C@H](C(C)C)NC1=O` [Compound R3138, [mXylyl(1,6)]Ac-C-V-E-R-F-C-D-Tbg-Y-W-E-F-NH2] (Ac-CVERFCD[Tle]YWEF-NH2; linker 1-6 via mXylylene), the IC50 came to 87.2 nM. Turning to `CC(=O)N[C@H]1CSCc2cccc(c2)CSC[C@@H](C(=O)N[C@@H](CC(=O)O)C(=O)N[C@H](C(=O)N[C@@H](Cc2ccc(O)cc2)C(=O)N[C@@H](Cc2c[nH]c3ccccc23)C(=O)N[C@@H](CCC(=O)O)C(=O)N[C@@H](Cc2ccccc2)C(N)=O)C(C)(C)C)NC(=O)[C@H](Cc2ccccc2)NC(=O)[C@H](CCCNC(=N)N)NC(=O)[C@H](CCC(=O)O)NC(=O)[C@H](C(C)(C)C)NC1=O` [Compound R3139, [mXylyl(1,6)]Ac-C-Tbg-E-R-F-C-D-Tbg-Y-W-E-F-NH2] (Ac-C[Tle]ERFCD[Tle]YWEF-NH2; linker 1-6 via mXylylene), the IC50 is 97.2 nM.

Take `CC(=O)N[C@H]1CSCc2cccc(c2)CSC[C@@H](C(=O)N[C@@H](CC(=O)O)C(=O)N[C@H](C(=O)N[C@@H](Cc2ccc(O)cc2)C(=O)N[C@@H](Cc2c[nH]c3ccccc23)C(=O)N[C@@H](CCC(=O)O)C(=O)N[C@@H](Cc2ccc(O)cc2)C(=O)N2CCC[C@H]2C(N)=O)C(C)C)NC(=O)[C@H](Cc2ccccc2)NC(=O)[C@H](CCCNC(=N)N)NC(=O)[C@H](CCC(=O)O)NC(=O)[C@H](C(C)C)NC1=O` [Compound R3140, [mXv1v1(1,6)]Ac-C-V-E-R-F-C-D-V-Y-W-E-Y-P-NH2]: the IC50 stood at 17.9 nM. On to `CC(=O)N[C@H]1CSCc2cccc(c2)CSC[C@@H](C(=O)N[C@@H](CC(=O)O)C(=O)N[C@H](C(=O)N[C@@H](Cc2ccc(O)cc2)C(=O)N[C@@H](Cc2c[nH]c3ccccc23)C(=O)N[C@@H](CCC(=O)O)C(=O)N[C@@H](Cc2ccccc2)C(=O)N2CCC[C@H]2C(N)=O)C(C)C)NC(=O)[C@H](Cc2ccccc2)NC(=O)[C@H](CCCNC(=N)N)NC(=O)[C@H](CCC(=O)O)NC(=O)[C@H](C(C)C)NC1=O` [Compound R3141, [mXylyl(1,6)]Ac-C-V-E-R-F-C-D-V-Y-W-E-F-P-NH2] (Ac-CVERFCDVYWEFP-NH2; linker 1-6 via mXylylene), for which the IC50 is 24.5 nM.

With `CC(=O)N[C@H]1CSCc2cccc(c2)CSC[C@@H](C(=O)N[C@@H](CC(=O)O)C(=O)N[C@H](C(=O)N[C@@H](Cc2ccc(O)cc2)C(=O)N[C@@H](Cc2c[nH]c3ccccc23)C(=O)N[C@@H](CCC(=O)O)C(=O)N[C@@H](Cc2ccc(O)cc2)C(=O)N2CCC[C@H]2C(N)=O)C(C)(C)C)NC(=O)[C@H](Cc2ccccc2)NC(=O)[C@H](CCCNC(=N)N)NC(=O)[C@H](CCC(=O)O)NC(=O)[C@H](C(C)C)NC1=O` [Compound R3143, [mXyly1(1,6)]Ac-C-V-E-R-F-C-D-Tbg-Y-W-E-Y-P-NH2] (Ac-CVERFCD[Tle]YWEYP-NH2; linker 1-6 via mXylylene), the IC50 amounted to 18.6 nM.

On to `CC(=O)N[C@H]1CSCc2cccc(c2)CSC[C@@H](C(=O)N[C@@H](CC(=O)O)C(=O)N[C@H](C(=O)N[C@@H](Cc2ccc(O)cc2)C(=O)N[C@@H](Cc2c[nH]c3ccccc23)C(=O)N[C@@H](CCC(=O)O)C(=O)N[C@@H](Cc2ccccc2)C(N)=O)C(C)C)NC(=O)[C@H](Cc2ccccc2)NC(=O)[C@H](CCCNC(=N)N)NC(=O)[C@H](CCC(=O)O)NC(=O)[C@H](C(C)(C)C)NC1=O` [Compound R3146, [mXylyl(1,6)]Ac-C-Tbg-E-R-F-C-D-V-Y-W-E-F-NH2] (Ac-C[Tle]ERFCDVYWEF-NH2; linker 1-6 via mXylylene), for which the concentration for half-maximal inhibition (IC50) was 107 nM.

Take `C#CC[C@H](NC(=O)[C@H](Cc1ccccc1)NC(=O)[C@H](CCC(=O)O)NC(=O)[C@H](Cc1c[nH]c2ccccc12)NC(=O)[C@H](Cc1ccc(O)cc1)NC(=O)[C@@H](NC(=O)[C@H](CC(=O)O)NC(=O)[C@@H]1CSCc2cccc(c2)CSC[C@H](NC(C)=O)C(=O)N[C@@H](C(C)C)C(=O)N[C@@H](CCC(=O)O)C(=O)N[C@@H](CCCNC(=N)N)C(=O)N[C@@H](Cc2ccccc2)C(=O)N1)C(C)C)C(N)=O` [Compound R3147, [mXylyl(1,6)]Ac-C-V-E-R-F-C-D-V-Y-W-E-F-Propargyl-Gly-NH2] (Ac-CVERFCDVYWEF[Pra]-NH2; linker 1-6 via mXylylene): the IC50 was 138 nM. In the case of `CCC[C@H](NC(=O)[C@@H](NC(=O)[C@@H]1CCCN1C(=O)[C@H](Cc1ccc(O)cc1)NC(=O)[C@H](CCC(=O)O)NC(=O)[C@H](Cc1c[nH]c2ccccc12)NC(=O)[C@H](Cc1ccc(O)cc1)NC(=O)[C@@H](NC(=O)[C@H](CC(=O)O)NC(=O)[C@@H]1CSCc2cccc(c2)CSC[C@H](NC(C)=O)C(=O)N[C@@H](C)C(=O)N[C@@H](CCC(=O)O)C(=O)N[C@@H](CCCNC(=N)N)C(=O)N[C@@H](Cc2ccccc2)C(=O)N1)C(C)(C)C)c1ccccc1)C(N)=O` [Compound R3148, [mXylyl(1,6)]Ac-C-A-E-R-F-C-D-Tbg-Y-W-E-Y-P-Phg-Nvl-NH2] (Ac-CAERFCD[Tle]YWEYP[Phg][Nva]-NH2; linker 1-6 via mXylylene), the IC50 came out at 8.5 nM. `CCC[C@H](NC(=O)[C@H](NC(=O)[C@@H]1CCCN1C(=O)[C@H](Cc1ccc(O)cc1)NC(=O)[C@H](CCC(=O)O)NC(=O)[C@H](Cc1c[nH]c2ccccc12)NC(=O)[C@H](Cc1ccc(O)cc1)NC(=O)[C@@H](NC(=O)[C@H](CC(=O)O)NC(=O)[C@@H]1CSCc2cccc(c2)CSC[C@H](NC(C)=O)C(=O)N[C@@H](C)C(=O)N[C@@H](CCC(=O)O)C(=O)N[C@@H](CCCNC(=N)N)C(=O)N[C@@H](Cc2ccccc2)C(=O)N1)C(C)(C)C)c1ccccc1)C(N)=O` [Compound R3149, [mXylyl(1,6)]Ac-C-A-E-R-F-C-D-Tbg-Y-W-E-Y-P-(D-Phg)-Nvl-NH2] (Ac-CAERFCD[Tle]YWEYP[dPhg][Nva]-NH2; linker 1-6 via mXylylene): the IC50 was 13.6 nM. On to `CCC[C@H](NC(=O)[C@@H](NC(=O)[C@@H]1CCCN1C(=O)[C@H](Cc1ccc(O)cc1)NC(=O)[C@H](CCC(=O)O)NC(=O)[C@H](Cc1c[nH]c2ncccc12)NC(=O)[C@H](Cc1ccc(O)cc1)NC(=O)[C@@H](NC(=O)[C@H](CC(=O)O)NC(=O)[C@@H]1CSCc2cccc(c2)CSC[C@H](NC(C)=O)C(=O)N[C@@H](C(C)C)C(=O)N[C@@H](C)C(=O)N[C@@H](CCCNC(=N)N)C(=O)N[C@@H](Cc2ccccc2)C(=O)N1)C(C)(C)C)c1ccccc1)C(N)=O` [Compound R3150, [mXylyl(1,6)]Ac-C-V-A-R-F-C-D-Tbg-Y-azaTrp-E-Y-P-Phg-Nvl-NH2] (Ac-CVARFCD[Tle]Y[Trp(7-aza)]EYP[Phg][Nva]-NH2; linker 1-6 via mXylylene), for which the IC50 came out at 37 nM. Then `CCC[C@H](NC(=O)[C@H](NC(=O)[C@@H]1CCCN1C(=O)[C@H](Cc1ccc(O)cc1)NC(=O)[C@H](CCC(=O)O)NC(=O)[C@H](Cc1c[nH]c2ncccc12)NC(=O)[C@H](Cc1ccc(O)cc1)NC(=O)[C@@H](NC(=O)[C@H](CC(=O)O)NC(=O)[C@@H]1CSCc2cccc(c2)CSC[C@H](NC(C)=O)C(=O)N[C@@H](C(C)C)C(=O)N[C@@H](C)C(=O)N[C@@H](CCCNC(=N)N)C(=O)N[C@@H](Cc2ccccc2)C(=O)N1)C(C)(C)C)c1ccccc1)C(N)=O` [Compound R3151, [mXylyl(1,6)]Ac-C-V-A-R-F-C-D-Tbg-Y-azaTrp-E-Y-P-(D-Phg)-Nvl-NH2] (Ac-CVARFCD[Tle]Y[Trp(7-aza)]EYP[dPhg][Nva]-NH2; linker 1-6 via mXylylene), with 165 nM. To `CCC[C@H](NC(=O)[C@@H](NC(=O)[C@@H]1CCCN1C(=O)[C@H](Cc1ccc(O)cc1)NC(=O)[C@H](CCC(=O)O)NC(=O)[C@H](Cc1c[nH]c2ncccc12)NC(=O)[C@H](Cc1ccc(O)cc1)NC(=O)[C@@H](NC(=O)[C@H](CC(=O)O)NC(=O)[C@@H]1CSCc2cccc(c2)CSC[C@H](NC(C)=O)C(=O)N[C@@H](C(C)C)C(=O)N[C@@H](CCC(=O)O)C(=O)N[C@@H](C)C(=O)N[C@@H](Cc2ccccc2)C(=O)N1)C(C)(C)C)c1ccccc1)C(N)=O` [Compound R3153, [mXylyl(1,6)]Ac-C-V-E-A-F-C-D-Tba-Y-azaTrp-E-Y-P-Phg-Nvl-NH2] (Ac-CVEAFCD[Tle]Y[Trp(7-aza)]EYP[Phg][Nva]-NH2; linker 1-6 via mXylylene) belongs 175 nM.

For the origin of these results see patent publication US10208089B2, “Modulation of complement activity” (priority 2014, dated 2019).
